Data on one molecule can be found in patent publication US20110177136A1, “METHOD AND PRODUCT” (priority 2008, published 2011).

Data set [1] in a line: In vitro dissolution test in simulated gastric fluid (USP 24 type II apparatus). It counts as physicochemical. The settings on record: 900 ml SGF pH 2, 37±0.5° C., 100 rpm, equivalent to 200 mg carbamazepine. The procedure:
SGF was prepared with 2 g/L NaCl and 1 g/L Triton X-100, and acidified to pH 2 with HCl. Bath temperature was maintained at 37±0.5° C. and stirred at 100 rpm. Samples were collected at 15, 30 and 60 min and replaced with a fresh dissolution medium. After centrifugation, filtration through 0.45 μm membrane filter and suitable dilution, concentration of carbamazepine was determined spectrophotometrically at 320 nm.

The conditions of data set [2]: 24 h.
The nature of data set [3]: physchem. The settings on record: 37 °C, water, thermodynamic from solid.

The term solubility denotes the dissolved amount per volume that the medium holds. Low readings indicate little dissolved substance, high ones much dissolved substance.

Each structure is given as a SMILES string. Values after ≈ are worked out from the molar mass of the structure shown.

As for `NC(=O)N1c2ccccc2C=Cc2ccccc21` [Carbamazepine, carbamazepine], the “Percentage of Carbamazepine released” value in data set [1] (15 min, listed as pure carbamazepine) is recorded as 43.48%; in data set [1] (15 min, listed as pure drug), 43.48 ± 2.23%; in data set [1] (30 min, listed as pure carbamazepine) it was 59.29%; in data set [1] (30 min, listed as pure drug), 59.29 ± 2.21%; in data set [1] (60 min, listed as Pure carbamazepine), 69.11%; in data set [1] (60 min, listed as pure drug) it was 69.11 ± 2.24%. For the same molecule, in data set [2], the “Saturation Solubility” value stood at 0.29 mg/mL. Moreover, the solubility at 24 h in data set [3] amounted to 290 µg/mL (≈ 1230 µM).
